From patent publication US20260022142A1, “MACROCYCLIC IMMUNOMODULATORS” (Bristol-Myers Squibb Company, priority 2022, published 2026)
Bridge positions count the residues as written; N and C are the ends. Square brackets hold non-standard residues; d marks the D form. Peptide text beside a SMILES is read from it. * marks the point of attachment. Phe(4-COOH) = N[C@@H](Cc1ccc(C(=O)O)cc1)C(=O)O; Bip = N[C@@H](Cc1ccc(-c2ccccc2)cc1)C(=O)O; Phe(3-Me) = Cc1cccc(C[C@H](N)C(=O)O)c1; Cha = N[C@@H](CC1CCCCC1)C(=O)O; Carboxymethyl = O=C(O)C*; Orn = NCCC[C@H](N)C(=O)O; Aun = NCCCCCCCCCCC(=O)O; Dab = NCC[C@H](N)C(=O)O; Dap = NC[C@H](N)C(=O)O; AEEA = NCCOCCOCC(=O)O

Target: T1, PD-1/PD-L1 interaction (PE-labeled human PD-L1-Ig binding to Jurkat cell line over-expressing human PD-1) (Homo sapiens, UniProt Q15116)
T1 construct: expressed in transfected cells; host or cells: Jurkat
Assay: Jurkat-PD-1 Cell Binding High-Content Screening Assay (CBA)
Type: cell-based
Conditions: Jurkat cell line over-expressing human PD-1; PE-labeled PD-L1-Ig 20 nM final; read-out: Jurkat hPD1-PDL1 IC50
How it was run: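 Jurkat cells stably over-expressing human PD-1 were seeded in DMEM with 10% fetal calf serum and pre-incubated with compound for 2 h at 37° C. PE-labeled human PD-L1-Ig was then added at 20 nM final for 1 hour, after which cells were fixed with paraformaldehyde, Hoechst-stained and imaged by high-content microscopy.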

T1 sequence (Q15116 25-288): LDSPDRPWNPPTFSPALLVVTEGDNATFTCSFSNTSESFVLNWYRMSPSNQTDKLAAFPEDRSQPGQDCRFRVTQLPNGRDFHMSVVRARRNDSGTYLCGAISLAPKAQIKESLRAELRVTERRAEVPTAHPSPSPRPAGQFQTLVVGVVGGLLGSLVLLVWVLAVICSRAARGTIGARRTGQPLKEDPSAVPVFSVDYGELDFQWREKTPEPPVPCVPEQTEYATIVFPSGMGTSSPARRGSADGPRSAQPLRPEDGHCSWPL

SMILES	IC50
CC(C)C[C@H]1NC(=O)[C@H](CCCN)NC(=O)[C@H](C(C)C)NC(=O)[C@H](Cc2ccc(-c3ccccc3)cc2)NC(=O)[C@H](C(C)C)NC(=O)[C@H](Cc2c[nH]c3ccccc23)NC(=O)[C@H](CC(=O)O)NC(=O)[C@H](Cc2ccc(C(=O)O)cc2)NC(=O)[C@H](Cc2ccc(OCC(=O)O)cc2)NC(=O)CSC[C@@H](C(=O)N[C@@H](CCN)C(=O)NCCCCCCCCCCC(=O)O)NC(=O)[C@H](CCCCN)NC(=O)[C@H](C(C)C)NC(=O)[C@H](CC2CCCCC2)NC(=O)[C@H](CCN)NC1=O [Compound 2555] ({CH2CO}-Y(Carboxymethyl)[Phe(4-COOH)]DWV[Bip]V[Orn][dL][Dab][Cha]VKC[Dab][Aun]-OH; thioether N-14)	24.1 nM
CC(C)C[C@H]1NC(=O)[C@H](CCCN)NC(=O)[C@H](C(C)C)NC(=O)[C@H](Cc2ccc(-c3ccccc3)cc2)NC(=O)[C@H](C(C)C)NC(=O)[C@H](Cc2c[nH]c3ccccc23)NC(=O)[C@H](CC(=O)O)NC(=O)[C@H](Cc2ccc(OCC(=O)O)cc2)NC(=O)[C@H](Cc2ccc(OCC(=O)O)cc2)NC(=O)CSC[C@@H](C(=O)N[C@@H](CCN)C(=O)NCCCCCCCCCCC(=O)O)NC(=O)[C@H](CCCNC(=N)N)NC(=O)[C@H](C(C)C)NC(=O)[C@H](CC2CCCCC2)NC(=O)[C@H](CCN)NC1=O [Compound 2556] ({CH2CO}-Y(Carboxymethyl)Y(Carboxymethyl)DWV[Bip]V[Orn][dL][Dab][Cha]VRC[Dab][Aun]-OH; thioether N-14)	43.7 nM
CC(C)C[C@H]1NC(=O)[C@H](CCCN)NC(=O)[C@H](C(C)C)NC(=O)[C@H](Cc2ccc(-c3ccccc3)cc2)NC(=O)[C@H](C(C)C)NC(=O)[C@H](Cc2c[nH]c3ccccc23)NC(=O)[C@H](CC(=O)O)NC(=O)[C@H](Cc2ccc(OCC(=O)O)cc2)NC(=O)[C@H](CN)NC(=O)CSC[C@@H](C(=O)N[C@@H](CCN)C(=O)NCCCCCCCCCCC(=O)O)NC(=O)[C@H](CCCCN)NC(=O)[C@H](C(C)C)NC(=O)[C@H](CC2CCCCC2)NC(=O)[C@H](CCN)NC1=O [Compound 2557] ({CH2CO}-[Dap]Y(Carboxymethyl)DWV[Bip]V[Orn][dL][Dab][Cha]VKC[Dab][Aun]-OH; thioether N-14)	12.1 nM
Cc1cccc(C[C@@H]2NC(=O)[C@H](CC(=O)O)NC(=O)[C@H](Cc3ccc(OCC(=O)O)cc3)NC(=O)[C@H](CN)NC(=O)CSC[C@@H](C(=O)N[C@@H](CCN)C(=O)NCCCCCCCCCCC(=O)O)NC(=O)[C@H](CN)NC(=O)[C@H](C(C)C)NC(=O)[C@H](CC3CCCCC3)NC(=O)[C@H](CCN)NC(=O)[C@@H](CC(C)C)NC(=O)[C@H](CCCN)NC(=O)[C@H](C(C)C)NC(=O)[C@H](Cc3ccc(-c4ccccc4)cc3)NC(=O)[C@H](C(C)C)NC2=O)c1 [Compound 2558] ({CH2CO}-[Dap]Y(Carboxymethyl)D[Phe(3-Me)]V[Bip]V[Orn][dL][Dab][Cha]V[Dap]C[Dab][Aun]-OH; thioether N-14)	10.7 nM
Cc1cccc(C[C@@H]2NC(=O)[C@H](CC(=O)O)NC(=O)[C@H](Cc3ccc(OCC(=O)O)cc3)NC(=O)[C@H](CN)NC(=O)CSC[C@@H](C(=O)N[C@@H](CCN)C(=O)NCCCCCCCCCCC(=O)O)NC(=O)[C@H](CCCN)NC(=O)[C@H](C(C)C)NC(=O)[C@H](CC3CCCCC3)NC(=O)[C@H](CCN)NC(=O)[C@@H](CC(C)C)NC(=O)[C@H](CCCN)NC(=O)[C@H](C(C)C)NC(=O)[C@H](Cc3ccc(-c4ccccc4)cc3)NC(=O)[C@H](C(C)C)NC2=O)c1 [Compound 2559] ({CH2CO}-[Dap]Y(Carboxymethyl)D[Phe(3-Me)]V[Bip]V[Orn][dL][Dab][Cha]V[Orn]C[Dab][Aun]-OH; thioether N-14)	11.3 nM
Cc1cccc(C[C@@H]2NC(=O)[C@H](CC(=O)O)NC(=O)[C@H](Cc3ccc(OCC(=O)O)cc3)NC(=O)[C@H](CN)NC(=O)CSC[C@@H](C(=O)N[C@@H](CCN)C(=O)NCCCCCCCCCCC(=O)O)NC(=O)[C@H](CCCNC(=N)N)NC(=O)[C@H](C(C)C)NC(=O)[C@H](CC3CCCCC3)NC(=O)[C@H](CCN)NC(=O)[C@@H](CC(C)C)NC(=O)[C@H](CCCN)NC(=O)[C@H](C(C)C)NC(=O)[C@H](Cc3ccc(-c4ccccc4)cc3)NC(=O)[C@H](C(C)C)NC2=O)c1 [Compound 2560] ({CH2CO}-[Dap]Y(Carboxymethyl)D[Phe(3-Me)]V[Bip]V[Orn][dL][Dab][Cha]VRC[Dab][Aun]-OH; thioether N-14)	17 nM
CC(C)C[C@H]1NC(=O)[C@H](CCCN)NC(=O)[C@H](C(C)C)NC(=O)[C@H](Cc2ccc(-c3ccccc3)cc2)NC(=O)[C@H](C(C)C)NC(=O)[C@H](Cc2c[nH]c3ccccc23)NC(=O)[C@H](CC(=O)O)NC(=O)[C@H](Cc2ccc(OCC(=O)O)cc2)NC(=O)[C@H](Cc2ccc(OCC(=O)O)cc2)NC(=O)CSC[C@@H](C(=O)N[C@@H](CCN)C(=O)NCCCCCCCCCCC(=O)O)NC(=O)[C@H](CCCN)NC(=O)[C@H](C(C)C)NC(=O)[C@H](CC2CCCCC2)NC(=O)[C@H](CCN)NC1=O [Compound 2561] ({CH2CO}-Y(Carboxymethyl)Y(Carboxymethyl)DWV[Bip]V[Orn][dL][Dab][Cha]V[Orn]C[Dab][Aun]-OH; thioether N-14)	14.6 nM
CC(C)C[C@H]1NC(=O)[C@H](CCCN)NC(=O)[C@H](C(C)C)NC(=O)[C@H](Cc2ccc(-c3ccccc3)cc2)NC(=O)[C@H](C(C)C)NC(=O)[C@H](Cc2c[nH]c3ccccc23)NC(=O)[C@H](CC(=O)O)NC(=O)[C@H](Cc2ccc(OCC(=O)O)cc2)NC(=O)[C@H](Cc2ccc(OCC(=O)O)cc2)NC(=O)CSC[C@@H](C(=O)N[C@@H](CCN)C(=O)NCCCCCCCCCCC(=O)O)NC(=O)[C@H](CN)NC(=O)[C@H](C(C)C)NC(=O)[C@H](CC2CCCCC2)NC(=O)[C@H](CCN)NC1=O [Compound 2562] ({CH2CO}-Y(Carboxymethyl)Y(Carboxymethyl)DWV[Bip]V[Orn][dL][Dab][Cha]V[Dap]C[Dab][Aun]-OH; thioether N-14)	39.2 nM
CC(C)C[C@H]1NC(=O)[C@H](CCCN)NC(=O)[C@H](C(C)C)NC(=O)[C@H](Cc2ccc(-c3ccccc3)cc2)NC(=O)[C@H](C(C)C)NC(=O)[C@H](Cc2c[nH]c3ccccc23)NC(=O)[C@H](CC(=O)O)NC(=O)[C@H](Cc2ccc(C(=O)O)cc2)NC(=O)[C@H](Cc2ccc(OCC(=O)O)cc2)NC(=O)CSC[C@@H](C(=O)NCCOCCOCC(=O)NCCCCCCCCCCC(=O)O)NC(=O)[C@H](CCCCN)NC(=O)[C@H](C(C)C)NC(=O)[C@H](CC2CCCCC2)NC(=O)[C@H](CCN)NC1=O [Compound 2563] ({CH2CO}-Y(Carboxymethyl)[Phe(4-COOH)]DWV[Bip]V[Orn][dL][Dab][Cha]VKC[AEEA][Aun]-OH; thioether N-14)	29.3 nM
CC(C)C[C@H]1NC(=O)[C@H](CCCN)NC(=O)[C@H](C(C)C)NC(=O)[C@H](Cc2ccc(-c3ccccc3)cc2)NC(=O)[C@H](C(C)C)NC(=O)[C@H](Cc2c[nH]c3ccccc23)NC(=O)[C@H](CC(=O)O)NC(=O)[C@H](Cc2ccc(OCC(=O)O)cc2)NC(=O)[C@H](Cc2ccc(OCC(=O)O)cc2)NC(=O)CSC[C@@H](C(=O)NCCOCCOCC(=O)NCCCCCCCCCCC(=O)O)NC(=O)[C@H](CCCNC(=N)N)NC(=O)[C@H](C(C)C)NC(=O)[C@H](CC2CCCCC2)NC(=O)[C@H](CCN)NC1=O [Compound 2564] ({CH2CO}-Y(Carboxymethyl)Y(Carboxymethyl)DWV[Bip]V[Orn][dL][Dab][Cha]VRC[AEEA][Aun]-OH; thioether N-14)	10 nM
CC(C)C[C@H]1NC(=O)[C@H](CCCN)NC(=O)[C@H](C(C)C)NC(=O)[C@H](Cc2ccc(-c3ccccc3)cc2)NC(=O)[C@H](C(C)C)NC(=O)[C@H](Cc2c[nH]c3ccccc23)NC(=O)[C@H](CC(=O)O)NC(=O)[C@H](Cc2ccc(OCC(=O)O)cc2)NC(=O)[C@H](CN)NC(=O)CSC[C@@H](C(=O)NCCOCCOCC(=O)NCCCCCCCCCCC(=O)O)NC(=O)[C@H](CCCCN)NC(=O)[C@H](C(C)C)NC(=O)[C@H](CC2CCCCC2)NC(=O)[C@H](CCN)NC1=O [Compound 2565] ({CH2CO}-[Dap]Y(Carboxymethyl)DWV[Bip]V[Orn][dL][Dab][Cha]VKC[AEEA][Aun]-OH; thioether N-14)	5.4 nM
Cc1cccc(C[C@@H]2NC(=O)[C@H](CC(=O)O)NC(=O)[C@H](Cc3ccc(OCC(=O)O)cc3)NC(=O)[C@H](CN)NC(=O)CSC[C@@H](C(=O)NCCOCCOCC(=O)NCCCCCCCCCCC(=O)O)NC(=O)[C@H](CN)NC(=O)[C@H](C(C)C)NC(=O)[C@H](CC3CCCCC3)NC(=O)[C@H](CCN)NC(=O)[C@@H](CC(C)C)NC(=O)[C@H](CCCN)NC(=O)[C@H](C(C)C)NC(=O)[C@H](Cc3ccc(-c4ccccc4)cc3)NC(=O)[C@H](C(C)C)NC2=O)c1 [Compound 2566] ({CH2CO}-[Dap]Y(Carboxymethyl)D[Phe(3-Me)]V[Bip]V[Orn][dL][Dab][Cha]V[Dap]C[AEEA][Aun]-OH; thioether N-14)	9.4 nM
Cc1cccc(C[C@@H]2NC(=O)[C@H](CC(=O)O)NC(=O)[C@H](Cc3ccc(OCC(=O)O)cc3)NC(=O)[C@H](CN)NC(=O)CSC[C@@H](C(=O)NCCOCCOCC(=O)NCCCCCCCCCCC(=O)O)NC(=O)[C@H](CCCN)NC(=O)[C@H](C(C)C)NC(=O)[C@H](CC3CCCCC3)NC(=O)[C@H](CCN)NC(=O)[C@@H](CC(C)C)NC(=O)[C@H](CCCN)NC(=O)[C@H](C(C)C)NC(=O)[C@H](Cc3ccc(-c4ccccc4)cc3)NC(=O)[C@H](C(C)C)NC2=O)c1 [Compound 2567] ({CH2CO}-[Dap]Y(Carboxymethyl)D[Phe(3-Me)]V[Bip]V[Orn][dL][Dab][Cha]V[Orn]C[AEEA][Aun]-OH; thioether N-14)	5.3 nM
Cc1cccc(C[C@@H]2NC(=O)[C@H](CC(=O)O)NC(=O)[C@H](Cc3ccc(OCC(=O)O)cc3)NC(=O)[C@H](CN)NC(=O)CSC[C@@H](C(=O)NCCOCCOCC(=O)NCCCCCCCCCCC(=O)O)NC(=O)[C@H](CCCNC(=N)N)NC(=O)[C@H](C(C)C)NC(=O)[C@H](CC3CCCCC3)NC(=O)[C@H](CCN)NC(=O)[C@@H](CC(C)C)NC(=O)[C@H](CCCN)NC(=O)[C@H](C(C)C)NC(=O)[C@H](Cc3ccc(-c4ccccc4)cc3)NC(=O)[C@H](C(C)C)NC2=O)c1 [Compound 2568] ({CH2CO}-[Dap]Y(Carboxymethyl)D[Phe(3-Me)]V[Bip]V[Orn][dL][Dab][Cha]VRC[AEEA][Aun]-OH; thioether N-14)	12.7 nM
